US20180116983A1, “COMPOUNDS FOR TREATING DISORDERS ASSOCIATED WITH BK CHANNEL MODULATION” (Canbex Therapeutics Limited, priority 2015, published 2018)
Entries after “also recorded” stand apart in the source; their conditions may differ.

Legend:
KNCMA1 = target: T1, KNCMA1 (Sus scrofa, UniProt O18866); assay: Inside-out patch clamp of pig aortic endothelial cells; assay type: cell-based
T1 construct: endogenous in cells; host or cells: primary pig aortic endothelial cells

[1] = system: C57BL/6.Fmr1 knockout mice; assay: Open field test in Fmr1 knockout mice; assay type: in vivo, mouse; conditions: 2 mg/kg i.v.
Procedure: (§1) Animals: C57BL/6.J. Fmr1-K02 mice, which have a deletion of the promoter and exonl of the Fmr1 gene (Mientjes et al., 2006) and C57BL/6J wild type (WT) were originated from the Jackson laboratory (Ann Harbor, USA). Mice were housed in groups (4-6 per cage) and all animals were provided with ad libitum food and water unless otherwise stated. Mice were maintained on a 12 h light/12 h dark cycle (lights off 19:00 to 7:00) in a temperature-controlled environment (21±1° C.). Testing was conducted in the light phase. Mice were housed in commercial cages and experiments were performed in line with the United Kingdom Animals (Scientific procedures) Act 1986. […]
(§2) Drug Treatment: VSN16R was dissolved in saline for injection intravenously via a tail vein using 2 mg/kg a 30 g needle in a volume of 0.1 ml. […] The eye condition (runny eyes or porphyria, ptosis), gait appearance, tremor, tail tone, reactivity to handling was assessed to detect adverse behavioural effect.
Open field: The open field apparatus was used to test multiple processes including anxiety/hyperactivity and habituation to a novel environment, in which decreased exploration as a function of repeated exposure to the same environment is taken as an index of memory. […] The number of squares entered (whole body) (locomotor activity) and rears (both front paws off the ground, but not as part of grooming) were counted. […]

[2] = system: C57BL/6.Fmr1 knockout mice; assay: Marble burying in Fmr1 knockout mice; assay type: in vivo, mouse; conditions: 2 mg/kg i.v., 30 min
Procedure: as §1, §2
Marble burying: Mice will dig as part of their typical behaviours and this was detected using transparent plastic cages were filled with a 10 cm deep layer of sawdust on top of which 10 glass marbles were placed in two rows. Each animal was left undisturbed in such a cage for 30 min, after which the number of marbles that were buried to at least ⅔ of their depth was recorded. […]

BK channel = BK channel (Homo sapiens, UniProt Q12791); assay: Inside-out patch clamp (single channel) on EA.hy926 cells; assay type: cell-based; design: The human umbilical vein derived endothelial cell line, EA.hy926; endogenous in cells; host or cells: EA.hy926 human endothelial cell line
Procedure: The human umbilical vein derived endothelial cell line, EA.hy926 (Edgell et al., Proc Natl Acad Sci USA. 1983 June; 80(12): 3734-7) at passage >45 was grown in DMEM containing 10% FCS and 1% HAT (5 mM hypoxanthine, 20 μM aminopterin, 0.8 mM thymidine) and cells were maintained in an incubator at 37° C. in 5% CO2 atmosphere. Cells were plated on either 10 mm (for patch-clamp recordings) or 30 mm glass cover slips (for Ca^2+ measurements).
Single-channel recordings were obtained from excised inside-out membrane patches in symmetrical solutions. The pipettes were filled with (in mM) 140 KCl, 10 HEPES, 1 MgCl2, 5 EGTA, 4,931 CaCl2 with pH 7.2 by adding KOH (i.e. 10 μM free Ca^2+, G. Droogmans, Leuven, Belgium; ftp://ftp.cc.kuleuven.ac.be/pub/droodmans/cabuf.zip). Cells were perfused with a standard bath solution containing (in mM) 140 NaCl, 5 KCl, 1.2 MgCl2, 10 HEPES, 10 glucose, 2.4 CaCl2. Following gigaseal formation, bath solution was switched to the following (in mM) 140 KCl, 10 HEPES, 1 MgCl2, 5 EGTA and a desired free Ca^2+ concentration which was adjusted by adding different amounts of CaCl2 calculated by the program CaBuf. pH was adjusted to 7.2 by adding KOH. Membrane currents and potential were recorded using a List EPC7 amplifier (List, Germany) and pClamp (version 8.2, Axon Instruments) software.

rat mesenteric arteries = assay: Vasodilation in rat mesenteric arteries (wire myograph)
Procedure: Rats were stunned by a blow to the back of their neck and killed by cervical dislocation in compliance with schedule 1 of the UK Animals (Scientific Procedures) Act 1986.
Segments (2 mm in length) were mounted in a Mulvany-Halpern type wire myograph (Model 610M; Danish Myo Technology, Aarhus, Denmark) and maintained at 37° C. in gassed (95% O2/5% CO2) Krebs-Henseleit solution of the following composition (mM): NaCl 118, KCl 4.7, MgSO4 1.2, KH2PO4 1.2, NaHCO, 25, CaCl2 2, D-glucose 10 as previously described (Ho and Randall, 2007). Arteries were equilibrated and set to a basal tension of 2-2.5 mN. The integrity of the endothelium was assessed by precontracting the vessel with 10 μM methoxamine (an α1-adrenoceptor agonist), followed by relaxation with 10 μM carbachol (a muscarinic acetylcholine receptor agonist); vessels showing relaxations of greater than 90% were designated as endothelium-intact. When endothelium was not required, it was removed by rubbing the intima with a human hair; carbachol-induced relaxation of less than 10% indicated successful removal. After the test for endothelial integrity, arteries were left for 30 min and then precontracted with 10 μM methoxamine (or 60 mM KCl), this was followed by construction of a cumulative concentration-relaxation curve to VSN16R (10 nM-1 μM). Most experiments were performed in matched vessels; effects of putative modulators or endothelial removal were compared with the control responses obtained in separate vessels of the same rat. Potential modulators were added to the myograph bath 30 min before measurement, and kept present during, construction of the concentration-relaxation curve.

Half-life by route = assay type: in vivo

Chain of BK channel (Q12791 1-1178 isoform Q12791-5): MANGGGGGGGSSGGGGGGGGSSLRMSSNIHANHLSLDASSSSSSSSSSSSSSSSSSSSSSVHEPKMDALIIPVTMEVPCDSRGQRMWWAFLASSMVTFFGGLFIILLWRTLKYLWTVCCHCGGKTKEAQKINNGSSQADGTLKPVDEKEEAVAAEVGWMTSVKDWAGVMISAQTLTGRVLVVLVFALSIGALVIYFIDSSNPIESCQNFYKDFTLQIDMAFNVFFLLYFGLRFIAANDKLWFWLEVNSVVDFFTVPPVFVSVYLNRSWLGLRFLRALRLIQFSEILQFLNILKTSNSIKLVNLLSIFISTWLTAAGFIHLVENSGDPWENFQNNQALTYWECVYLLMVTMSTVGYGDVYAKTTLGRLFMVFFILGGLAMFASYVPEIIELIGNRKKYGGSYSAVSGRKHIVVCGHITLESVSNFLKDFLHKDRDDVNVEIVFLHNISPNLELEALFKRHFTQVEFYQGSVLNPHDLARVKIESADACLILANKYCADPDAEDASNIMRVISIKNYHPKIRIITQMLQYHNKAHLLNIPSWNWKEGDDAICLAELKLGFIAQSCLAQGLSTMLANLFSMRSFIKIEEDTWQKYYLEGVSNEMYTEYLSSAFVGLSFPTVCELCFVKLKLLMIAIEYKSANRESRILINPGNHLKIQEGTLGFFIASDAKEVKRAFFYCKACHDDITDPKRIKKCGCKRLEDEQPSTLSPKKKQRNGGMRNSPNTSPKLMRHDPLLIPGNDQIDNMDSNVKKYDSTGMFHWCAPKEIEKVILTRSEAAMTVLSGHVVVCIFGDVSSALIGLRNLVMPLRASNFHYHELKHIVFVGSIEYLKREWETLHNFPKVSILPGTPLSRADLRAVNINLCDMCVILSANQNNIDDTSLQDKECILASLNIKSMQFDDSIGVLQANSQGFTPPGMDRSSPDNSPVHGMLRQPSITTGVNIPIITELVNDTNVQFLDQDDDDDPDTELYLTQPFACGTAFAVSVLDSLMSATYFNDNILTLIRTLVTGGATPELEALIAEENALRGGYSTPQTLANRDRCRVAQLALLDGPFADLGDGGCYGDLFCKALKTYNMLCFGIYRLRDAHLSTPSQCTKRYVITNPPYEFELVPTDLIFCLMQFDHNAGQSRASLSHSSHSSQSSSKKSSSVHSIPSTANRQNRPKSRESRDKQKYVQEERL
Chain of BK channel (Q86W47 whole entry partner): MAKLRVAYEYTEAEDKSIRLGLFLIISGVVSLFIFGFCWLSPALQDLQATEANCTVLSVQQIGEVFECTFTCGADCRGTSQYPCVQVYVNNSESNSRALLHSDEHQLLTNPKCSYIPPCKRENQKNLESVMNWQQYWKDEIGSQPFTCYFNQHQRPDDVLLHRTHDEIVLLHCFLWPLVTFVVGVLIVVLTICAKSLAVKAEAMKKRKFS
T1 sequence (O18866 whole entry): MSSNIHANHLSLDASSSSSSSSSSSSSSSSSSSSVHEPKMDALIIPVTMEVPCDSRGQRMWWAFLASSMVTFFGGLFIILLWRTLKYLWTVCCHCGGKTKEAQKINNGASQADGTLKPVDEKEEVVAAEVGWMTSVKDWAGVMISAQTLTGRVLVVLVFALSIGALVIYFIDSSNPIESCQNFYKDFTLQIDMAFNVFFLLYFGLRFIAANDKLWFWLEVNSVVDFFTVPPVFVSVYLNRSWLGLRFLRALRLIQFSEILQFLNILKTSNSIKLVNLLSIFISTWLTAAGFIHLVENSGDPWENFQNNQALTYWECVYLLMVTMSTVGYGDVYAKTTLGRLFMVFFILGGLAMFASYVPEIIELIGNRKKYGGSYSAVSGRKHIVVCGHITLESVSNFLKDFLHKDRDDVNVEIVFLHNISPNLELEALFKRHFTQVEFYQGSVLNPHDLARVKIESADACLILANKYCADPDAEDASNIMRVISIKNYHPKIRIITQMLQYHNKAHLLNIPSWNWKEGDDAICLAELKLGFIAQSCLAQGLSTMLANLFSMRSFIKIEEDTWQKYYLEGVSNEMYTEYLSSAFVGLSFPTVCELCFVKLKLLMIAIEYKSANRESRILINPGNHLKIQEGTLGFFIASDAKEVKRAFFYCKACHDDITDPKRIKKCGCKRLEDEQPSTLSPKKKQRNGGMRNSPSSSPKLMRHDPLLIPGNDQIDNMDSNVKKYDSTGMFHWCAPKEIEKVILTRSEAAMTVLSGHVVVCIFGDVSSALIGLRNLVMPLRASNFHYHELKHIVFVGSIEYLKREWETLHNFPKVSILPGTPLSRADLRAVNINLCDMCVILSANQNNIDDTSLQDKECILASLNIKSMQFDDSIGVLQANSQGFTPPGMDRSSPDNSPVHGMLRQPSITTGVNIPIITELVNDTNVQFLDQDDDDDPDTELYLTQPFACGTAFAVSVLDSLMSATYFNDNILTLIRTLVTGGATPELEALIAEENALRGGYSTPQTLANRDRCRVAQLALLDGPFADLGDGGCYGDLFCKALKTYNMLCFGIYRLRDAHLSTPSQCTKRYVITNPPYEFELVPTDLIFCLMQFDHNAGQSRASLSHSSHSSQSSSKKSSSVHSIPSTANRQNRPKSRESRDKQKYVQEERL

C[C@H](CO)NC(=O)c1cccc(/C=C\CCCC(=O)N(C)C)c1 [VSN16R]
response in inside-out patch (KNCMA1): does not give a response
open field activity (hyperactivity, memory) ([1]; Fmr1 knockout mice, baseline, 10 min, 24 h, 2 mg/kg): inhibits the hyperactivity and memory deficient; also recorded: movement behaviours were comparable to that observed in wildtype mice; also recorded: normalise the memory and exploratory behaviours to the level of wildtype mice
open field activity ([1]; wildtype mice): exhibit comparable movement behaviour to vehicle-treated wildtype mice
digging behaviour (marbles buried) [2]: inhibits the development of Exaggerated Digging Behaviours; also recorded: significantly (P<0.001) limited the exaggerated behaviour
open probability of BKca channels (BK channel; EA.hy926 cells): increases the open probability of BKca channels
activation of the response of the channel (BK channel; human EA.hy926 cells, calcium dependent): voltage and calcium dependent; also recorded: activation of the response of the channel
relaxation of rat mesenteric arteries in the presence of charybdotoxin (rat mesenteric arteries; 50 nM charybdotoxin): inhibited by antagonists of BKCa channels
relaxation of rat mesenteric arteries in the presence of iberotoxin (rat mesenteric arteries; 50 nM iberotoxin): blocked by iberotoxin; also recorded: can be inhibited by the specific BK channel blocker iberiotoxin; also recorded: inhibited by antagonists of BKCa channels
activation of calcium activated potassium channels in arterial vasodilation assay (rat mesenteric arteries; FIG. 9, reduction of endothelial tone): activates calcium activated potassium channels
relaxation of rat mesenteric arteries in the presence of apamin alone (rat mesenteric arteries; apamin alone): non-significant blockade
relaxation of rat mesenteric arteries in the presence of apamin and charybdotoxin (rat mesenteric arteries; combination of apamin and charybdotoxin): blocked
relaxation of rat mesenteric arteries in the presence of 60 mM KCl (rat mesenteric arteries; extracellular 60 mM KCl): inhibiting VSN16R activity; also recorded: produced no relaxation
relaxation of rat mesenteric arteries (rat mesenteric arteries; pre-contracted with methoxamine, endothelium intact vs denuded): relaxed; also recorded: can induce vasorelaxation in an endothelium-dependent (P<0.001) manner
t½ (Half-life by route; intravenous route): 6 min
half-life, oral route relative to intravenous route (Half-life by route; oral vs intravenous): 10 times
